In patent US3961041A, “Effervescent enteric coated L-dopa formulation and method of using the same” (priority 1974, dated 1976):

Legend:
[1] = test system: decarboxylase enzymes; details: cited from earlier work
[2] = test system: Parkinson's Disease; details: in vivo, po; cited from earlier work
[3] = cited from earlier work
[4] = Absorption of L-DOPA from the gastrointestinal tract (inventors' experimentation); assay type: in vivo
Text: As for (1), it has been confirmed that the decomposition of L-DOPA in the stomach is remarkable as shown in numerous reports in the past.
As a result, optimum absorption of the drug is totally incomplete.

[5] = dopamine as metabolite; cited from earlier work

Row | Compound | decarboxylation via decarboxylase enzymes in the intestine [1] | side effects when massive dosing is administered [2] | decomposition in the stomach ([3]; in vivo) | stability in the gastrointestinal tract, especially in the stomach ([3]; in vivo) | absorption from the gastrointestinal tract (prior art reason) ([3]; oral) | absorption from the gastrointestinal tract ([4]; in vivo) | optimum absorption site ([4]; in vivo) | absorption, oral as compared to intravenous ([4]; oral vs intravenous) | therapeutic effect in the treatment of Parkinson's Disease [5]
1 | N[C@@H](Cc1ccc(O)c(O)c1)C(=O)O [L-DOPA, 3,4-dihydroxy-L-phenylalanine] | apt to undergo decarboxylation | marked side effects | remarkable | unstable | poorly absorbed | almost completely absorbed | small intestine, especially in the upper part thereof | not appreciably different | –
2 | NCCc1ccc(O)c(O)c1 [dopamine] | – | – | – | – | – | – | – | – | does not have any therapeutic effect
